The values that follow are results of earlier work, collected in US8697141B2, “Method and composition for preventing and healing osteonecrosis of the jaw” (Micropure, Inc., priority 2008, dated 2014).

Data set [1] relates to ONJ. The following applies: oral users, 208 patients.
The test system of data set [2] is endothelial cells. Particulars: dose and time dependent.
Data set [3] deals with fibroblasts. Particulars: dose and time dependent.
The subject of data set [4] is osteoblasts. Particulars: dose and time dependent.
The test system of data set [5] is osteoblasts. Particulars: chlorhexidine at 0.12%.
In data set [6] the test system is human osteoblast-like cells. The following applies: high concentrations over a prolonged time interval.
In data set [7] the test system is periodontal ligament cells. Particulars: chlorhexidine at 0.12%.
In data set [8] the test system is ONJ. Particulars: 0.12% chlorhexidine; out of 24 patients.
In data set [9] the test system is human gingival fibroblasts. Particulars: chlorhexidine at 0.12%.
The subject of data set [10] is C. albicans. The following applies: time and dose dependent.
Data set [11] relates to human gingival fibroblasts. The following applies: 0.05 mM.
For data set [12], the system named is capillary neoangiogenesis.
The subject of data set [13] is bone vascularity. Particulars: rats.
Data set [14] concerns keratinocytes. The following applies: low concentrations.
Data set [15] deals with human gingival fibroblasts. Particulars: low concentrations.
The subject of data set [16] is bacteria. Particulars: exposures as short as 10 seconds.
Data set [17] relates to DUWL biofilms. Particulars: after 5 days of treatment.
For data set [18] the following is noted: in vivo.
The subject of data set [19] is Bacteroides gingivalis. The following applies: 200 ppm, at several time points and different pH.
The test system of data set [20] is S. mutans. The following applies: 200 ppm, within 10 seconds of application.

Where two headings read alike, the source gives them in different places.

As for `NCCCC(O)(P(=O)(O)O)P(=O)(O)O` [alendronate], the ONJ prevalence rate in data set [1] is recorded as 4%.
Take `N=C(NCCCCCCNC(=N)NC(=N)Nc1ccc(Cl)cc1)NC(=N)Nc1ccc(Cl)cc1.O=C(O)[C@H](O)[C@@H](O)[C@H](O)[C@H](O)CO.O=C(O)[C@H](O)[C@@H](O)[C@H](O)[C@H](O)CO` [chlorhexidine digluconate]: the apoptosis and necrosis result in data set [2] is “induced apoptosis and led to necrosis”; in data set [3] it was “induced apoptosis and led to necrosis”; in [4], “induced apoptosis and led to necrosis”.
For `[H]/N=C(\N/C(=N/[H])NCCCCCCNC(=N)NC(=N)Nc1ccc(Cl)cc1)Nc1ccc(Cl)cc1` [chlorhexidine], the “LDH release compared with controls” value in [5] is “elevated and significant LDH release”. For the same compound, the cell survival result in data set [6] is reported as “adverse effect on the survival”. In data set [7], the “LDH release compared with controls” value was “elevated and significant LDH release”. In data set [8], the “patients with ONJ progression” value was 13 patients, the “patients with ONJ resolution” value is on record as 3 patients and the “patients with no change in ONJ status” value is 8 patients. Besides, the “LDH release compared with controls” value in data set [9] was “elevated and significant LDH release”.
Consider `[O][Cl+][O-]` [chlorine dioxide], for which the potassium leakage entry in data set [10] was “marked increase”. The induction of apoptosis entry in data set [11] (0.1 mM and 0.5 mM ClO2) is on record as “not to induce apoptosis significantly”.
As for `OO` [hydrogen peroxide], the induction of apoptosis entry in [11] (1.0 mM) was “induced apoptosis at all concentrations tested”.
Turning to `NCCC(O)(P(=O)(O)O)P(=O)(O)O` [pamidronate], the “new formation of capillaries from blood vessels” value in [12] is reported as “inhibit the new formation of capillaries from blood vessels”. The bone vascularity entry in [13] is “reduce bone vascularity”.
As for `O=P(O)(O)C(O)(Cn1ccnc1)P(=O)(O)O` [zoledronic acid], the “apoptosis of oral mucosal cells” value in data set [14] and in data set [15] was “gene-regulated induced apoptosis” in each case.
As for stabilized chlorine dioxide, the reduction in bacteria entry in [16] is listed as “dramatic reduction in bacteria”. Further, the “LDH release compared with controls” value in [5], in data set [7] and in data set [9] was “did not increase the release of LDH” in each case. In addition, the “heterotrophic plate count (HPC) value” in data set [17] is given as 0. Further, the “VSCs in expired mouth air” value in data set [18] was “remarkable decrease in VSCs”. For the same compound, the in vitro kill in data set [19] was 100%. Besides, in [20], the “in vitro kill rate” value was 99%.
